Target: T1, human GPR84 receptor (Homo sapiens, UniProt Q9NQS5)
T1 construct: frozen aliquots prepared by acCELLerate; host or cells: CHO-K1
Experiment: cAMP HTRF assay for identification of cellular GPR84 antagonists
Assay type: cell-based
Details: CHO-K1 cells stably expressing human GPR84; Forskolin + agonist 6-OAU (EC80); average or median values
Method in brief: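 Forskolin-stimulated CHO-K1 cells stably expressing human GPR84, agonist-suppressed cAMP measured by HTRF (665/620 ratio) after lysis. Compounds at 11 concentrations, 20 μM to 0.07 nM, duplicate; normalized to DMSO and no-agonist controls; IC50 by 4-parameter fit.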

T1 sequence (Q9NQS5 whole entry): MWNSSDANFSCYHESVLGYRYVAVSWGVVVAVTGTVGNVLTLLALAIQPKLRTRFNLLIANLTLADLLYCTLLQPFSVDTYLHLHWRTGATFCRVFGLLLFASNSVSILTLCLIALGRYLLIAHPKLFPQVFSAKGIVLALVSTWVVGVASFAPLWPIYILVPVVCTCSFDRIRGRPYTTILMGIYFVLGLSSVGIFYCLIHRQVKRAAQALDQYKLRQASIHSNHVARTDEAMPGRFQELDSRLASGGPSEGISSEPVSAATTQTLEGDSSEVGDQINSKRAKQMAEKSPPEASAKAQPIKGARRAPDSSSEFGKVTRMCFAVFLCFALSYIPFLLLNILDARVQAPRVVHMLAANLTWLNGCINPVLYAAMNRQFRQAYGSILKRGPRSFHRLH

Row | IC50 [µM] | SMILES
1 | 0.723 | O=C(NC[C@H]1COCCO1)c1oc2c(c1C(F)(F)F)-c1nn(C[C@@H]3COCCO3)cc1CC2 [Example 301, 2-{[(2R)-1,4-dioxan-2-yl]methyl}-N-{[(2S)-1,4-dioxan-2-yl]methyl}-8-(trifluoromethyl)-4,5-dihydro-2H-furo[2,3-g]indazole-7-carboxamide]
2 | 4.57 | Cc1c(C(=O)NCCN2CC(C)(C)C2=O)oc2c1-c1nn(Cc3ccccn3)cc1CC2 [Example 28, N-[2-(3,3-dimethyl-2-oxoazetidin-1-yl)ethyl]-8-methyl-2-(pyridin-2-ylmethyl)-4,5-dihydro-2H-furo[2,3-g]indazole-7-carboxamide]
3 | 1.96 | Cc1c(C(=O)NC[C@@H]2COCCO2)oc2c1-c1nn(CC3CNC3)cc1CC2 [Example 159, 2-(azetidin-3-ylmethyl)-N-[(2R)-1,4-dioxan-2-ylmethyl]-8-methyl-4,5-dihydro-2H-furo[2,3-g]indazole-7-carboxamide]
4 | 0.17 | Cc1ccc(Cn2cc3c(n2)-c2c(oc(C(=O)NC[C@@H]4CCCO4)c2C)CC3)c(C)n1 [Example 77, 2-[(2,6-dimethylpyridin-3-yl)methyl]-8-methyl-N-[(2S)-tetrahydrofuran-2-ylmethyl]-4,5-dihydro-2H-furo[2,3-g]indazole-7-carboxamide]
5 | 0.077 | Cc1c(C(=O)NC[C@@H]2COCCO2)oc2c1-c1nn(C[C@H]3CCCO3)cc1CC2 [Example 106, N[(2R)-1,4-dioxan-2-ylmethyl]-8-methyl-2-[(2R)-tetrahydrofuran-2-ylmethyl]-4,5-dihydro-2H-furo[2,3-g]indazole-7-carboxamide]
6 | 0.578 | Cc1c(C(=O)NC[C@@H]2CCCO2)oc2c1-c1nn(C(C)c3ccccn3)cc1CC2 (mixture of isomers) [Example 317, 8-methyl-N-{[(2S)-oxolan-2-yl]methyl}-2-[(1±)-1-(pyridin-2-yl)ethyl]-4,5-dihydro-2H-furo[2,3-g]indazole-7-carboxamide]
7 | 0.111 | Cc1c(C(=O)NCC2CC3(CC3)CO2)oc2c1-c1nn(C[C@H]3COCCO3)cc1C1(CC1)C2 (mixture of isomers) [Example 200]
8 | 0.095 | Cc1c(C(=O)NCC2CCCO2)oc2c1-c1nn(CC3COc4ncccc4O3)cc1CC2 (single isomer, unassigned) [Example 52-1]
9 | 0.03 | Cc1c(C(=O)NCC2CCC(C)(C)O2)oc2c1-c1nn(Cc3ccccn3)cc1CC2 (racemic) [Example 170]
10 | 1.81 | Cc1cccc(Cn2cc3c(n2)-c2c(oc(C(=O)NCCN4CCC4)c2C)CC3)n1 [Example 67, N-[2-(azetidin-1-yl)ethyl]-8-methyl-2-[(6-methylpyridin-2-yl)methyl]-4,5-dihydro-2H-furo[2,3-g]indazole-7-carboxamide]
11 | 11.2 | Cc1c(C(=O)NCc2cnoc2C2CC2)oc2c1-c1nn(Cc3ccccn3)cc1CC2 [Example 16, N-[(5-cyclopropyl-1,2-oxazol-4-yl)methyl]-8-methyl-2-(pyridin-2-ylmethyl)-4,5-dihydro-2H-furo[2,3-g]indazole-7-carboxamide]
12 | 0.11 | Cc1c(C(=O)NC[C@@H]2CCCO2)oc2c1-c1nn(CC3(F)CN(S(C)(=O)=O)C3)cc1CC2 [Example 166, 2-{[3-fluoro-1-(methylsulfonyl)azetidin-3-yl]methyl}-8-methyl-N-[(2S)-tetrahydrofuran-2-ylmethyl]-4,5-dihydro-2H-furo[2,3-g]indazole-7-carboxamide]
13 | 0.021 | O=C(NC[C@@H]1COCCO1)c1oc2c(c1C(F)(F)F)-c1nn(CC3CCN(C(=O)C4CC4)CC3)cc1CC2 [Example 285, 2-{[1-(cyclopropanecarbonyl)piperidin-4-yl]methyl}-N-{[(2R)-1,4-dioxan-2-yl]methyl}-8-(trifluoromethyl)-4,5-dihydro-2H-furo[2,3-g]indazole-7-carboxamide]
14 | 0.009 | CCC(=O)C(=O)N1CCC(Cn2cc3c(n2)-c2c(oc(C(=O)NC[C@@H]4COCCO4)c2C(F)(F)F)C[C@H]3C)CC1 (single isomer, unassigned) [Example 296, (4R or 4S)-N-{[(2R)-1,4-dioxan-2-yl]methyl}-4-methyl-2-{[1-(2-oxobutanoyl)piperidin-4-yl]methyl}-8-(trifluoromethyl)-4,5-dihydro-2H-furo[2,3-g]indazole-7-carboxamide]
15 | 3.47 | Cc1ccn(CCNC(=O)c2oc3c(c2C(F)(F)F)-c2nn(C[C@H]4COCCO4)cc2CC3)n1 [Example 234, 2-[(2S)-1,4-Dioxan-2-ylmethyl]-N-[2-(3-methyl-1H-pyrazol-1-yl)ethyl]-8-(trifluormethyl)-4,5-dihydro-2H-furo[2,3-g]indazol-7-carboxamide]
16 | 0.077 | Cc1c(C(=O)NC[C@@H]2CCCO2)oc2c1-c1nn(Cc3ccncc3)cc1C1(CCC1)C2 [Example 202]
17 | 0.62 | Cc1c(C(=O)NC[C@@H]2CCCO2)oc2c1-c1nn(C[C@H]3CCO3)cc1CC2 [Example 97, 8-methyl-2-[(2R)-oxetan-2-ylmethyl]-N-[(2S)-tetrahydrofuran-2-ylmethyl]-4,5-dihydro-2H-furo[2,3-g]indazole-7-carboxamide]
18 | 0.34 | Cc1c(C(=O)NCc2cc[nH]n2)oc2c1-c1nn(Cc3ccccn3)cc1CC2 [Example 22, 8-methyl-N-(1H-pyrazol-3-ylmethyl)-2-(pyridin-2-ylmethyl)-4,5-dihydro-2H-furo[2,3-g]indazole-7-carboxamide]
19 | 0.154 | CN1CCC(Cn2cc3c(n2)-c2c(oc(C(=O)NC[C@@H]4COCCO4)c2C(F)(F)F)CC3)CC1 [Example 309, N-{[(2R)-1,4-dioxan-2-yl]methyl}-2-[(1-methylpiperidin-4-yl)methyl]-8-(trifluoromethyl)-4,5-dihydro-2H-furo[2,3-g]indazole-7-carboxamide]
20 | 0.7 | Cc1c(C(=O)NCC2CN(C)CCO2)oc2c1-c1nn(Cc3ccccn3)cc1CC2 (racemic) [Example 38, 8-methyl-N-{[(2R/S)-4-methylmorpholin-2-yl]methyl}-2-(pyridin-2-ylmethyl)-4,5-dihydro-2H-furo[2,3-g]indazole-7-carboxamide]
21 | 0.042 | Cc1c(C(=O)NC[C@@H]2CCCO2)oc2c1-c1nn(CC3COc4ncccc4O3)cc1CC2 (mixture of isomers) [Example 52, 2-[(2R/S)-2,3-dihydro[1,4]dioxino[2,3-b]pyridin-2-ylmethyl]-8-methyl-N-[(2S)-tetrahydrofuran-2-ylmethyl]-4,5-dihydro-2H-furo[2,3-g]indazole-7-carboxamide]
22 | 6.74 | Cc1c(C(=O)NC[C@@H]2CCCO2)oc2c1-c1nn(CCN3CCNCC3)cc1CC2 [Example 162, 8-methyl-2-[2-(piperazin-1-yl)ethyl]-N-[(2S)-tetrahydrofuran-2-ylmethyl]-4,5-dihydro-2H-furo[2,3-g]indazole-7-carboxamide]
23 | 0.003 | C[C@@H]1Cc2oc(C(=O)NCc3cnc(Cl)cn3)c(C(F)(F)F)c2-c2nn(C[C@H]3COCCO3)cc21 (single isomer, unassigned) [Example 323, (4R or 4S)—N-[(5-chloropyrazin-2-yl)methyl]-2-{[(2S)-1,4-dioxan-2-yl]methyl}-4-methyl-8-(trifluoromethyl)-4,5-dihydro-2H-furo[2,3-g]indazole-7-carboxamide]
24 | 0.043 | Cc1c(C(=O)NC[C@@H]2COCCO2)oc2c1-c1nn(Cc3noc(C4CC4)n3)cc1CC2 [Example 138]
